Reference: PubChem BioAssay (NCI)
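Cultured in 96-well plates, cells were exposed to test compound for 48 hours across five concentrations. GI50 marks 50% less growth. TGI: total growth inhibition.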

Assays:
Test in all cases: NCI tumour cell line growth inhibition, 48 h
NCI-H460 lung = tested on: NCI-H460 lung
MDA-MB-435 = tested on: MDA-MB-435
SK-MEL-5 melanoma = tested on: SK-MEL-5 melanoma
SF-295 CNS = tested on: SF-295 CNS
HCT-116 colon = tested on: HCT-116 colon
SW-620 colon = tested on: SW-620 colon
SK-MEL-28 melanoma = tested on: SK-MEL-28 melanoma
HCT-15 colon = tested on: HCT-15 colon
T-47D breast = tested on: T-47D breast
IGROV1 ovarian = tested on: IGROV1 ovarian
MOLT-4 leukemia = tested on: MOLT-4 leukemia
HT29 colon = tested on: HT29 colon
MDA-MB-468 breast = tested on: MDA-MB-468 breast
CCRF-CEM leukemia = tested on: CCRF-CEM leukemia
HL-60(TB) leukemia = tested on: HL-60(TB) leukemia
SK-OV-3 ovarian = tested on: SK-OV-3 ovarian
RXF 393 renal = tested on: RXF 393 renal
A498 renal = tested on: A498 renal
SF-539 CNS = tested on: SF-539 CNS
CAKI-1 renal = tested on: CAKI-1 renal
EKVX NSCLC = tested on: EKVX NSCLC
RPMI-8226 leukemia = tested on: RPMI-8226 leukemia
A549 NSCLC = tested on: A549 NSCLC
SNB-19 CNS = tested on: SNB-19 CNS
UACC-257 melanoma = tested on: UACC-257 melanoma
SNB-75 CNS = tested on: SNB-75 CNS
KM12 colon = tested on: KM12 colon
SF-268 CNS = tested on: SF-268 CNS
OVCAR-8 ovarian = tested on: OVCAR-8 ovarian
SN12C renal = tested on: SN12C renal
SK-MEL-2 melanoma = tested on: SK-MEL-2 melanoma
PC-3 prostate = tested on: PC-3 prostate
MDA-MB-231 breast = tested on: MDA-MB-231 breast
BT-549 breast = tested on: BT-549 breast
NCI/ADR-RES ovarian = tested on: NCI/ADR-RES ovarian
DU-145 prostate = tested on: DU-145 prostate
OVCAR-4 ovarian = tested on: OVCAR-4 ovarian
LOX IMVI melanoma = tested on: LOX IMVI melanoma
MALME-3M melanoma = tested on: MALME-3M melanoma
HOP-62 NSCLC = tested on: HOP-62 NSCLC
OVCAR-5 ovarian = tested on: OVCAR-5 ovarian
SR leukemia = tested on: SR leukemia
UO-31 renal = tested on: UO-31 renal
786-0 renal = tested on: 786-0 renal
HOP-92 NSCLC = tested on: HOP-92 NSCLC
MCF7 breast = tested on: MCF7 breast
NCI-H23 lung = tested on: NCI-H23 lung
ACHN renal = tested on: ACHN renal
UACC-62 melanoma = tested on: UACC-62 melanoma
NCI-H522 lung = tested on: NCI-H522 lung
TK-10 renal = tested on: TK-10 renal
K-562 leukemia = tested on: K-562 leukemia
M14 melanoma = tested on: M14 melanoma
HS 578T breast = tested on: HS 578T breast
NCI-H226 lung = tested on: NCI-H226 lung
U251 CNS = tested on: U251 CNS
COLO 205 colon = tested on: COLO 205 colon
HCC-2998 colon = tested on: HCC-2998 colon
OVCAR-3 ovarian = tested on: OVCAR-3 ovarian

SMILES: Fc1ccc(N2CC(Cn3c(C(F)(F)F)cc4c(Cl)ncnc43)C2)c(F)c1
- GI50 (NCI-H460 lung): 3.99 µM
- TGI (NCI-H460 lung): 14.3 µM
- GI50 (MDA-MB-435): 4.95 µM
- TGI (MDA-MB-435): 17.6 µM
- GI50 (SK-MEL-5 melanoma): 10.9 µM
- TGI (SK-MEL-5 melanoma): 22.9 µM
- GI50 (SF-295 CNS): 11.5 µM
- TGI (SF-295 CNS): 24.5 µM
- GI50 (HCT-116 colon): 1920 nM
- TGI (HCT-116 colon): 3.93 µM
- GI50 (SW-620 colon): 1890 nM
- TGI (SW-620 colon): 3.85 µM
- GI50 (SK-MEL-28 melanoma): 2080 nM
- TGI (SK-MEL-28 melanoma): 4.91 µM
- GI50 (HCT-15 colon): 1790 nM
- TGI (HCT-15 colon): 3.55 µM
- GI50 (T-47D breast): 13.9 µM
- TGI (T-47D breast): 66.8 µM
- GI50 (IGROV1 ovarian): 1850 nM
- TGI (IGROV1 ovarian): 3.54 µM
- GI50 (MOLT-4 leukemia): 3.12 µM
- TGI (MOLT-4 leukemia): 8.97 µM
- GI50 (HT29 colon): 3.44 µM
- TGI (HT29 colon): 16.3 µM
- GI50 (MDA-MB-468 breast): 1630 nM
- TGI (MDA-MB-468 breast): 3.2 µM
- GI50 (CCRF-CEM leukemia): 10.4 µM
- TGI (CCRF-CEM leukemia): > 100 µM
- GI50 (HL-60(TB) leukemia): 2260 nM
- TGI (HL-60(TB) leukemia): 6.38 µM
- GI50 (SK-OV-3 ovarian): 14.6 µM
- TGI (SK-OV-3 ovarian): 29.6 µM
- GI50 (RXF 393 renal): 2070 nM
- TGI (RXF 393 renal): 4.99 µM
- GI50 (A498 renal): 23.3 µM
- TGI (A498 renal): 74.2 µM
- GI50 (SF-539 CNS): 13.7 µM
- TGI (SF-539 CNS): 28.3 µM
- GI50 (CAKI-1 renal): 11.8 µM
- TGI (CAKI-1 renal): 24.2 µM
- GI50 (EKVX NSCLC): 6.54 µM
- TGI (EKVX NSCLC): 19.8 µM
- GI50 (RPMI-8226 leukemia): 23.4 µM
- TGI (RPMI-8226 leukemia): 64.9 µM
- GI50 (A549 NSCLC): 17.3 µM
- TGI (A549 NSCLC): 35.7 µM
- GI50 (SNB-19 CNS): 15.1 µM
- TGI (SNB-19 CNS): 28.9 µM
- GI50 (UACC-257 melanoma): 3.1 µM
- TGI (UACC-257 melanoma): 12 µM
- GI50 (SNB-75 CNS): 12.1 µM
- TGI (SNB-75 CNS): 24.8 µM
- GI50 (KM12 colon): 16.1 µM
- TGI (KM12 colon): 31.2 µM
- GI50 (SF-268 CNS): 3.14 µM
- TGI (SF-268 CNS): 11.2 µM
- GI50 (OVCAR-8 ovarian): 2150 nM
- TGI (OVCAR-8 ovarian): 5.07 µM
- GI50 (SN12C renal): 1950 nM
- TGI (SN12C renal): 4.97 µM
- GI50 (SK-MEL-2 melanoma): 15.9 µM
- TGI (SK-MEL-2 melanoma): 31.2 µM
- GI50 (PC-3 prostate): 3.07 µM
- TGI (PC-3 prostate): 10.9 µM
- GI50 (MDA-MB-231 breast): 1630 nM
- TGI (MDA-MB-231 breast): 3.09 µM
- GI50 (BT-549 breast): 10.7 µM
- TGI (BT-549 breast): 22.9 µM
- GI50 (NCI/ADR-RES ovarian): 10.2 µM
- TGI (NCI/ADR-RES ovarian): 26.5 µM
- GI50 (DU-145 prostate): 12.6 µM
- TGI (DU-145 prostate): 25.8 µM
- GI50 (OVCAR-4 ovarian): 12.9 µM
- TGI (OVCAR-4 ovarian): 27 µM
- GI50 (LOX IMVI melanoma): 1630 nM
- TGI (LOX IMVI melanoma): 2990 nM
- GI50 (MALME-3M melanoma): 12.6 µM
- TGI (MALME-3M melanoma): 25.2 µM
- GI50 (HOP-62 NSCLC): 17.1 µM
- TGI (HOP-62 NSCLC): 33.8 µM
- GI50 (OVCAR-5 ovarian): 17.8 µM
- TGI (OVCAR-5 ovarian): 37.3 µM
- GI50 (SR leukemia): 2140 nM
- TGI (SR leukemia): 6.92 µM
- GI50 (UO-31 renal): 2680 nM
- TGI (UO-31 renal): 10.8 µM
- GI50 (786-0 renal): 14.9 µM
- TGI (786-0 renal): 29.1 µM
- GI50 (HOP-92 NSCLC): 11 µM
- TGI (HOP-92 NSCLC): 25.4 µM
- GI50 (MCF7 breast): 8.16 µM
- TGI (MCF7 breast): 23.6 µM
- GI50 (NCI-H23 lung): 2650 nM
- TGI (NCI-H23 lung): 8.34 µM
- GI50 (ACHN renal): 12.9 µM
- TGI (ACHN renal): 27.5 µM
- GI50 (UACC-62 melanoma): 3.16 µM
- TGI (UACC-62 melanoma): 13 µM
- GI50 (NCI-H522 lung): 1820 nM
- TGI (NCI-H522 lung): 3.97 µM
- GI50 (TK-10 renal): 19.3 µM
- TGI (TK-10 renal): 50.7 µM
- GI50 (K-562 leukemia): 2340 nM
- TGI (K-562 leukemia): 7.13 µM
- GI50 (M14 melanoma): 2980 nM
- TGI (M14 melanoma): 10.7 µM
- GI50 (HS 578T breast): 7.06 µM
- TGI (HS 578T breast): 41.8 µM
- GI50 (NCI-H226 lung): 14 µM
- TGI (NCI-H226 lung): 31 µM
- GI50 (U251 CNS): 1910 nM
- TGI (U251 CNS): 3.83 µM
- GI50 (COLO 205 colon): 15.1 µM
- TGI (COLO 205 colon): 32.5 µM
- GI50 (HCC-2998 colon): 1960 nM
- TGI (HCC-2998 colon): 3.48 µM
- GI50 (OVCAR-3 ovarian): 2550 nM
- TGI (OVCAR-3 ovarian): 6.42 µM
